According to patent publication US12454530B2, “Amido cyclohexane acid derivatives as LPA receptor inhibitors” (CHIESI FARMACEUTICI S.P.A., priority 2020, dated 2025):
pIC50: −log10 of the molar value.

Key:
BSEP = BSEP (Homo sapiens (Human), UniProt O95342); experiment: BSEP inhibition: biliary clearance of Taurocolic Acid in sandwich-cultured human hepatocytes; type: in vitro ADME; conditions: sandwich-cultured cryopreserved human hepatocytes, probe Taurocolic Acid (TCA); 50 μM test compound, 10 μM TCA, human hepatocytes sandwich configuration
Description: BSEP inhibition was evaluated using human hepatocytes cultured between two layer of collagen (sandwich configuration). In this culture condition, hepatocytes express relevant transporters including BSEP and retain the bile canalicular structure. An inhibition of the biliary clearance of Taurocolic Acid (TCA), a known BSEP substrate, was used to assess BSEP interaction.
BSEP inhibition was evaluated using cryopreserved human hepatocytes (Plateable Cryopreserved Human Hepatocytes, BIOIVT) cultured for 5 day between two layer of collagen (sandwich configuration). In this culture condition, hepatocytes express relevant transporters including BSEP and retain the bile canalicular structure.
On day 5 of culture, hepatic cells are ready for the assay and the biliary clearance of Taurocolic Acid (TCA), a known BSEP substrate, can be estimated in presence and in absence of compound of interest.
The sample solution was prepared dissolving test compound and TCA in DMSO and then diluted in the Assay Buffer: Hank's Balance Salt Solution (HBSS+) warmed at 37° C. before use, to give the 10 μM TCA working solution with and without 50 μM of test compound. Hepatocytes were incubated for 10 minutes with these working solutions allowing TCA to be excreted into bile. At the end of incubation, the working solution was aspirated, and the content of the bile was collected through the addition of HBSS Modified without Ca2+/Mg2+(HBSS−). The presence of Ca2+ in the buffer is required to maintain the integrity of the tight junctions, the diffusional barrier between the canalicular lumen and extracellular space. Instead, incubation of cells in Ca2+-free buffer disrupts the tight junctions and opens the bile canalicular structures, allowing the bile content to be released and collect for HPLC-MS/MS analysis.
The in vitro biliary clearance of TCA incubated with and without test compounds is calculated according to the following formula:
where • Acc. Bile=(TCA amount in HBSS (−) buffer samples (pmol/mg protein)*Volume of each samples (mL))/Protein content per well (mg) • AUC=Incubation time (min)*T0 Concentration. T0 concentration is the initial TCA concentration in the medium.
The inhibition of BSEP was calculated as percentage of inhibition of TCA biliary clearance in presence of compound of interest, according to the following formula: BSEP inhibition %=100−(TCA ClBil with test compound*100)
TCA ClBil without test compound.

[1] = Permeability on Caco-2 cells monolayers; type: in vitro ADME; conditions: human, with Elacridar 10 µM (PgP inhibitor), Papp A>B with PgP inhibitor Elacridar, 10 μM compound, read-out: Passive Permeability
Description: Even more advantageously, the compounds of formula (I) of the present invention are also endowed with a good permeability profile that, in its turn, can ensure a suitable bioavailability for an oral administration. The permeability was assessed in human Caco 2 cell line, an in vitro model that mimic human gastrointestinal barrier and so useful to predic oral absorption.
The permeability of the compounds of the present invention was evaluated performing the assay on Caco-2 cells monolayers (human colon adenocarcinoma immortalized cell) by measuring the transport of compound (absorption and secretion) in both directions: apical to basolateral direction (A>B) and basolateral to apical (B>A) with and without PgP inhibitor (Elacridar).
The cells, purched from ReadyCell in 96 well format (Cod. KRECE-CCR50), were cultured by the supplier for 21 day on transwell supports in DMEM 1 g/L glucose culture medium supplemented with Fetal Bovin Sierum (10%), Glutamine 200 mM (1%) and Penicillin 10000 U/ml-10 mg/ml Streptomycin (1%).
On day 21 of colture, cell monolayers integrity was verified by measuring the trans-epithelial electric resistance (TEER) using the EVOM equipment (Endohm, WPI, Germany) and studying the apparent permeability (Papp) of reference compounds (Sulpiride and Metoprolol). Furthermore, as a control, the Talinolol 10 uM (Pgp efflux substrate) with and without Elacridar in both directions was used.
The sample solution was prepared dissolving test compound in DMSO at the concentration of 10 mM and then diluted in the Assay Buffer (Hank's Balance Salt Solution) warmed at 37° C. before use, to give the 10 μM Compound working solution with and without 10 μM Elacridar. These working solutions were added to donor compartment (apical for A>B direction and basolateral for B>A direction) and Assay Buffer (Hank's Balance Salt Solution) to the receiver compartment (basolateral for A>B direction and apical for B>A direction). The plate was incubated at 37° C. for 120 min, all incubation were conducted in triplicates. At the end of incubation, samples from donor and receiver compartments were collected for HPLC-MS/MS analyses.
The permeability coefficients (Papp) in both directions: apical to basolateral (A>B) and basolateral to apical (B>A) with and without PgP inhibitor (Elacridar) was calculated in nm/sec, using the following equation:
[formula] • where: • Cr=measured concentration in the receiver well at the time t (expressed as IS ratio) • Vr=volume of the receiver well (ml) • t=time (sec) • A=membrane surface area (cm^2) • C0=initial donor concentration • Passive Papp is considered Papp A>B with PgP inhibitor Elacridar.

[2] = biological target: human recombinant LPA1 expressed in CHO cells (Homo sapiens (Human), UniProt Q92633); experiment: LPA1 antagonist FLIPR calcium assay in CHO-hLPA1 cells; type: cell-based; conditions: range of activity; CHO-hLPA1, LPA EC80, Ca2+ mobilization; read-out: LPA1 IC50
Description: The effectiveness of compounds of the present invention as LPA1 antagonists can be determined at the human recombinant LPA1 expressed in CHO cells, using a FLIPR assay in 384 well format.
CHO-hLPA1 cell lines are cultured in a humidified incubator at 5% CO2 in DMEM/F-12 (1:1) MIXTURE with 2 mM Glutamax, supplemented with 10% of Foetal Bovine Serum, 1 mM Sodium Pyruvate, 11 mM Hepes and 1× Penicillin/Streptomycin. […] Serial dilutions (1:3 or 1:4, 11 points CRC) of compounds are performed in 100% DMSO at 200× the final concentration. […] The final concentration of DMSO in the assay will be 0.5% in each well. Medium is removed by aspiration and cells are then incubated with 30 μl of a loading solution containing 5 μM of the cytoplasmic Ca2+ indicator Cal-520 AM in Assay Buffer containing 2.5 mM probenecid for 30 min at 37° C. incubator (cell loading). The loaded cell plates are transferred into the FLIPR instrument and calcium responses are monitored during the on-line addition protocols. For testing of compounds, after the cell loading, 10 μl/well of 4× antagonists' solution was added onto the cells. After 30 min pre-incubation (at 37° C.), 10 μl/well of 5× concentrated LPA EC80 was added and Ca2+ mobilization responses was followed during the on-line addition protocol. Intracellular peak fluorescence values subtracted by baseline fluorescence are exported and analysed to determine IC50 values, respectively. The calcium response is expressed as percentage of the maximal inhibition of the EC80 agonist response.
The raw data (peak height expressed as relative fluorescence units) are normalized and transformed into “percent of inhibition”. Curve fitting and pIC50 (−LogIC50) estimations are carried out using a four-parameter logistic model using XLfit Software.

human recombinant LPA1 expressed in CHO cells, sequence (Q92633 whole entry): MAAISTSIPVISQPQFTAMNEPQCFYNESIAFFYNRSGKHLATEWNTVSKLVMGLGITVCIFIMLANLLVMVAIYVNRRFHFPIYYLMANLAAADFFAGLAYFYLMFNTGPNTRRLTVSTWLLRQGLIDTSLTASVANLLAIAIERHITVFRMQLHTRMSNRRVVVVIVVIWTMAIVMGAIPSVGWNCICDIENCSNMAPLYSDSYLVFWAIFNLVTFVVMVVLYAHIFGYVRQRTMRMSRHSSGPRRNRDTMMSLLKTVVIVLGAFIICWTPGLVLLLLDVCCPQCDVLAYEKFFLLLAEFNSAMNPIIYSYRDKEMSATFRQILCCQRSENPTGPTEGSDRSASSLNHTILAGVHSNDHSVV
BSEP, sequence (O95342 whole entry): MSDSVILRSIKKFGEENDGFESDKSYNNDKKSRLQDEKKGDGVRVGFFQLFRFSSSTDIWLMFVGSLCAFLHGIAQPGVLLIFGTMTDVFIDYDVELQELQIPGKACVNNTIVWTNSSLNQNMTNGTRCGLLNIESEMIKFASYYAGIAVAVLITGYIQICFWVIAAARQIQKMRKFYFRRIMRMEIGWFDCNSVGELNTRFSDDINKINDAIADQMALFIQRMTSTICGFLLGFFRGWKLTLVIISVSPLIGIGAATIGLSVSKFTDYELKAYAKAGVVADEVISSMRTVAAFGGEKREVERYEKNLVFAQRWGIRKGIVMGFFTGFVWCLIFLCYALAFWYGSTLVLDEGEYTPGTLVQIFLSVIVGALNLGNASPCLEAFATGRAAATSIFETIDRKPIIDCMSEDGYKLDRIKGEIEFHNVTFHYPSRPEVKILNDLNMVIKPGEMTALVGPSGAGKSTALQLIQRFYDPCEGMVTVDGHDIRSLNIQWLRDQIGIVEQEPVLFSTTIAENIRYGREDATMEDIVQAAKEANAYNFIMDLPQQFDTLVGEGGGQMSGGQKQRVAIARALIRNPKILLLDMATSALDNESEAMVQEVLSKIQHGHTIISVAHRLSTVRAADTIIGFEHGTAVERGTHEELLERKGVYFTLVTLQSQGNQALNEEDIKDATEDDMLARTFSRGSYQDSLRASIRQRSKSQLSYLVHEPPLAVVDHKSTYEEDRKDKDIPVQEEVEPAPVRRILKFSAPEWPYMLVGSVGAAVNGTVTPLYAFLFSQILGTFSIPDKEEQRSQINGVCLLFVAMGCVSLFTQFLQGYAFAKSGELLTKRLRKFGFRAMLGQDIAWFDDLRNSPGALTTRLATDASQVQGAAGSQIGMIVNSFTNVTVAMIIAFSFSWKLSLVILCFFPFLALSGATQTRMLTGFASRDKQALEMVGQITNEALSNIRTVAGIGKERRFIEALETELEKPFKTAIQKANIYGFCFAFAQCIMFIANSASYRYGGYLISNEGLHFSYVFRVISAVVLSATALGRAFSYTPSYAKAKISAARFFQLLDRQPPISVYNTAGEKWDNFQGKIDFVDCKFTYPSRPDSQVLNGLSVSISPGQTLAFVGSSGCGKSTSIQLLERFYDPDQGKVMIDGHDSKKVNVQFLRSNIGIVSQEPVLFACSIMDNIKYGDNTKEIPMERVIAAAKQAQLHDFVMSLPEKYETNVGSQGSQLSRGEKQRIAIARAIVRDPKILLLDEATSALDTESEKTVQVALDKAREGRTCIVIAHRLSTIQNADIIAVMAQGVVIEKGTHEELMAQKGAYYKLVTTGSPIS

Papp at 120 min, 10 µM [1] [×10⁻⁶ cm/s]	pIC50 [2]	Structure (SMILES)	inhibition at 10 min, 50 μM (BSEP) [%]
≥ 1.5		Cc1nc(-c2onc(C)c2NC(=O)O[C@H](C)c2ccccc2Cl)ccc1NC(=O)C1CCCCC1C(=O)O (single isomer, unassigned) [Example 13]	≤ 50
≥ 1.5		Cc1nc(-c2cnn(C)c2NC(=O)O[C@H](C)c2ccccc2Cl)ccc1NC(=O)[C@H]1CCCC[C@@H]1C(=O)O (stereo in doubt) [Example 2, (1S,2S)-2-((6-(5-((((R)-1-(2-chlorophenyl)ethoxy)carbony1)amino)-1-methyl-1H-pyrazol-4-yl)-2-methylpyridin-3-y1)carbamoyl)cyclohexane-1-carboxylic acid]	≤ 50
	6.60 to 7.30	COc1ccccc1[C@@H](C)OC(=O)Nc1c(C)noc1-c1ccc(NC(=O)[C@H]2CCCC[C@@H]2C(=O)O)cn1 [Example 37, (1S,2S)-2-((6-(4-((((R)-1-(2-methoxyphenyl)ethoxy)carbonyl)amino)-3-methylisoxazol-5-yl)pyridin-3-yl)carbamoyl)cyclohexane-1-carboxylic acid]	≤ 50
	> 7.30	Cc1noc(-c2ccc(NC(=O)[C@H]3CCCC[C@@H]3C(=O)O)cn2)c1NC(=O)O[C@H](C)c1ccccc1 [Example 41, (1S,2S)-2-((6-(3-methyl-4-((((R)-1-phenylethoxy)carbonyl)amino)isoxazol-5-yl)pyridin-3-yl)carbamoyl)cyclohexane-1-carboxylic acid]	≤ 50
≥ 1.5		Cc1nc(-c2snc(C)c2NC(=O)O[C@H](C)c2ccccc2Cl)ccc1NC(=O)[C@H]1CCCC[C@@H]1C(=O)O [Example 42, (1S,2S)-2-((6-(4-((((R)-1-(2-chlorophenyl)ethoxy)carbonyl)amino)-3-methylisothiazol-5-yl)-2-methylpyridin-3-yl)carbamoyl)cyclohexane-1-carboxylic acid]	
	6.60 to 7.30	Cc1nc(-c2cnn(C)c2NC(=O)O[C@H](C)c2ccccc2)ccc1NC(=O)[C@H]1CCCC[C@@H]1C(=O)O [Example 43, (1S,2S)-2-((2-methyl-6-(1-methyl-5-((((R)-1-phenylethoxy)carbonyl)amino)-1H-pyrazol-4-yl)pyridin-3-yl)carbamoyl)cyclohexane-1-carboxylic acid]	≤ 50
	> 7.30	Cc1nc(-c2nnn(C)c2NC(=O)O[C@H](C)c2ccccc2)ccc1NC(=O)[C@H]1CCCC[C@@H]1C(=O)O [Example 44, (1S,2S)-2-((2-methyl-6-(1-methyl-5-((((R)-1-phenylethoxy)carbonyl)amino)-1H-1,2,3-triazol-4-yl)pyridin-3-yl)carbamoyl)cyclohexane-1-carboxylic acid]	≤ 50
	6.60 to 7.30	Cc1nc(-c2nnn(C)c2NC(=O)O[C@H](C)c2ccccc2C(F)(F)F)ccc1NC(=O)[C@H]1CCCC[C@@H]1C(=O)O [Example 45, (1S,2S)-2-((2-methyl-6-(1-methyl-5-((((R)-1-(2-(trifluoromethyl)phenyl)ethoxy)carbonyl)amino)-1H-1,2,3-triazol-4-yl)pyridin-3-yl)carbamoyl)cyclohexane-1-carboxylic acid]	≤ 50
	> 7.30	Cc1nc(-c2nnn(C)c2NC(=O)O[C@H](C)c2ccccc2F)ccc1NC(=O)[C@H]1CCCC[C@@H]1C(=O)O [Example 47, (1S,2S)-2-((6-(5-((((R)-1-(2-fluorophenyl)ethoxy)carbonyl)amino)-1-methyl-1H-1,2,3-triazol-4-yl)-2-methylpyridin-3-yl)carbamoyl)cyclohexane-1-carboxylic acid]	≤ 50
	> 7.30	CCn1nnc(-c2ccc(NC(=O)[C@H]3CCCC[C@@H]3C(=O)O)c(C)n2)c1NC(=O)O[C@H](C)c1ccccc1Cl [Example 48, (1S,2S)-2-((6-(5-((((R)-1-(2-chlorophenyl)ethoxy)carbonyl)amino)-1-ethyl-1H-1,2,3-triazol-4-yl)-2-methylpyridin-3-yl)carbamoyl)cyclohexane-1-carboxylic acid]	≤ 50
	6.22 to 6.60	Cc1nc(-c2cnn(C)c2NC(=O)O[C@H](C)C2CCCC2)ccc1NC(=O)[C@H]1CCCC[C@@H]1C(=O)O [Example 51, (1S,2S)-2-((6-(5-((((R)-1-cyclopentylethoxy)carbonyl)amino)-1-methyl-1H-pyrazol-4-yl)-2-methylpyridin-3-yl)carbamoyl)cyclohexane-1-carboxylic acid]	≤ 50
	6.60 to 7.30	CCC[C@@H](C)OC(=O)Nc1c(-c2ccc(NC(=O)[C@H]3CCCC[C@@H]3C(=O)O)c(C)n2)nnn1C [Example 52, (1S,2S)-2-((2-methyl-6-(1-methyl-5-(((((R)-pentan-2-yl)oxy)carbonyl)amino)-1H-1,2,3-triazol-4-yl)pyridin-3-yl)carbamoyl)cyclohexane-1-carboxylic acid]	≤ 50
	> 7.30	C[C@@H](OC(=O)Nc1c(-c2ccc(NC(=O)[C@H]3CCCC[C@@H]3C(=O)O)c(F)n2)nnn1C)c1ccccc1Cl [Example 53, (1S,2S)-2-((6-(5-((((R)-1-(2-chlorophenyl)ethoxy)carbonyl)amino)-1-methyl-1H-1,2,3-triazol-4-yl)-2-fluoropyridin-3-yl)carbamoyl)cyclohexane-1-carboxylic acid]	≤ 50
